Experimental findings from ChEMBL document CHEMBL1134155, “Synthesis and HIV-1 integrase inhibitory activities of catechol and bis-catechol derivatives” (Bioorg Med Chem Lett, 2001) are described below.

As usually defined, the IC50 is the concentration that inhibits the measured activity by half.

Bounds are passed on as bounds.

Assay [1] has as its target Human immunodeficiency virus type 1 integrase (Human immunodeficiency virus 1, UniProt Q7ZJM1). Briefly: Inhibition of human immunodeficiency virus - 1 (HIV-1) integrase.
The test system of assay [2] is CCRF-CEM. Briefly: Tested for antiviral activity against Human Immunodeficiency virus (HIV-1) replication in CEM cells. The assay is classed as functional, cell-based.
The nature of assay [3]: Cytotoxicity in a cell viability MTT assay. In kind it is functional. The note with it: read-out: TC50 (the source's name).

Sequence of Human immunodeficiency virus type 1 integrase (Q7ZJM1 whole entry): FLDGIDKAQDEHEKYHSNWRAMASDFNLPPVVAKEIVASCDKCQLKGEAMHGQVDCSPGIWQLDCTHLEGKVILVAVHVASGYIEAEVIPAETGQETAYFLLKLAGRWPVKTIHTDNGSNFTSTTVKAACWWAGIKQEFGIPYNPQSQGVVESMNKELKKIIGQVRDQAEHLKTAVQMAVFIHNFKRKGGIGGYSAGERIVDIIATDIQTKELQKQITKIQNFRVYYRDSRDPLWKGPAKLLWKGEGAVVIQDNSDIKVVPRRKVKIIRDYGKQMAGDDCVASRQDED

As for `Cc1cc2cc(O)c(O)cc2c(C)c1-c1ccccc1C(F)(F)F`, the values for the IC50 in assay [1] and in assay [2] were 22 µM and 10.3 µM, respectively. For the same compound, the CC50 in assay [3] was determined as 13.6 µM.
Turning to `Cc1ccc(-c2c(C)cc3cc(O)c(O)cc3c2C)cc1`, in assay [1], the IC50 came out at 84 µM.
On the same count and under the same terms, for `Cc1cc2ccccc2c(C)c1-c1ccc(O)c(O)c1` the value was 500 µM.
As to `Oc1cc2c(cc1O)C1Cc3cc(O)c(O)cc3C(C2)O1`, the IC50 in assay [1] is 1.3 µM; in assay [2], 98 µM. Also, the CC50 in assay [3] is over 100 µM.
On to `Cc1cc2cc(O)c(O)cc2c(C)c1-c1cccc(C(F)(F)F)c1`, for which the IC50 in assay [1] was found to be 13 µM; in assay [2] it was 5.7 µM. For the same compound, the CC50 in assay [3] was determined as 72.6 µM.
In assay [1], `Cc1cc2c(F)cccc2c(C)c1-c1ccc(O)c(O)c1` gave an IC50 of 500 µM.
`Cc1cc2ccc(F)cc2c(C)c1-c1ccc(O)c(O)c1`: in assay [1], inhibition was half-maximal at 500 µM (IC50).
Still for that read-out and setting: the same measure for `Cc1cc2cc(O)c(O)cc2c(C)c1-c1ccc(F)cc1`: 138 µM.
For `Cc1cc2cc(O)c(O)cc2c(C)c1-c1ccc(C(F)(F)F)cc1`, the half-inhibitory concentration (IC50) in assay [1] is 21 µM; in assay [2], 10.5 µM. For the same compound, the CC50 in assay [3] was 19 µM.
Taken in the same sequence, the figures for `Oc1ccc(-c2ccc3cc(O)c(O)cc3c2)cc1O` were 2.1 µM, 9.9 µM and 51 µM.
Turning to `Cc1cc2cc(O)c(O)cc2c(C)c1-c1ccccc1F`, the IC50 in assay [1] is 500 µM.
On the same count and under the same terms, for `Cc1cc2cc(O)c(O)cc2c(C)c1-c1ccccc1` the value was 76 µM; for `Cc1ccc2cc(C)c(-c3ccc(O)c(O)c3)c(C)c2c1`, 157 µM.
Turning to `Cc1cc2cc(O)c(O)cc2c(C)c1-c1ccc(O)c(O)c1`, the results for the IC50 in assay [1] and in assay [2] were 23 µM and 8.7 µM, respectively. Moreover, the CC50 in assay [3] was determined as 33 µM.
